Measured values from patent publication US11053204B2, “Pyrimidinyloxy benzene derivatives as herbicides” (FMC Corporation, priority 2015, dated 2021).

Columns and labels:
Type in all cases: in vivo
[1] = test system: galium (catchweed bedstraw, Galium aparine); test: Test A postemergence, visual injury rating; conditions: 0 is no effect, 100 is complete control; for Galium plant response rating: 31 g ai/ha, 0 to 100 scale, approximately 10 days; for Galium plant response rating (0 to 100 scale): 125 g ai/ha
In short: (§1)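 Scoring: eye-based comparison with untreated controls, 0 for no effect through 100 for complete control, at about day 10. Treatments: directed soil spray preemergence; foliar spray postemergence on 2–10 cm plants at the one- to two-leaf stage. Medium: loam soil with sand.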

[2] = test system: blackgrass (Alopecurus myosuroides); test: Test A postemergence, visual injury rating; conditions: 0 is no effect, 100 is complete control; for Blackgrass plant response rating: 31 g ai/ha, 0 to 100 scale, approximately 10 days; for Blackgrass plant response rating (0 to 100 scale): 125 g ai/ha
In short: as §1

[3] = test system: barnyardgrass (Echinochloa crus-galli); test: Test A postemergence, visual injury rating; conditions: 0 is no effect, 100 is complete control; for Barnyardgrass plant response rating: 31 g ai/ha, 0 to 100 scale, approximately 10 days; for Barnyardgrass plant response rating (0 to 100 scale): 125 g ai/ha
In short: as §1

[4] = test system: ragweed (common ragweed, Ambrosia elatior); test: Test A postemergence, visual injury rating; conditions: 0 is no effect, 100 is complete control; for Ragweed plant response rating: 31 g ai/ha, 0 to 100 scale, approximately 10 days; for Ragweed plant response rating (0 to 100 scale): 125 g ai/ha
In short: as §1

[5] = test system: kochia (Kochia scoparia); test: Test A postemergence, visual injury rating; conditions: 0 is no effect, 100 is complete control; for Kochia plant response rating: 31 g ai/ha, 0 to 100 scale, approximately 10 days; for Kochia plant response rating (0 to 100 scale): 125 g ai/ha
In short: as §1

[6] = test system: Italian ryegrass (Lolium multiflorum); test: Test A postemergence, visual injury rating; conditions: 0 is no effect, 100 is complete control; for Ryegrass, Italian plant response rating: 31 g ai/ha, 0 to 100 scale, approximately 10 days; for Ryegrass, Italian plant response rating (0 to 100 scale): 125 g ai/ha
In short: as §1

[7] = test system: pigweed (Amaranthus retroflexus); test: Test A postemergence, visual injury rating; conditions: 0 is no effect, 100 is complete control; for Pigweed plant response rating: 31 g ai/ha, 0 to 100 scale, approximately 10 days; for Pigweed plant response rating (0 to 100 scale): 125 g ai/ha
In short: as §1

[8] = test system: corn (Zea mays); test: Test A postemergence, visual injury rating; conditions: 0 is no effect, 100 is complete control; for Corn plant response rating: 31 g ai/ha, 0 to 100 scale, approximately 10 days; for Corn plant response rating (0 to 100 scale): 125 g ai/ha
In short: as §1

[9] = test system: giant foxtail (Setaria faberii); test: Test A postemergence, visual injury rating; conditions: 0 is no effect, 100 is complete control; for Foxtail, Giant plant response rating: 31 g ai/ha, 0 to 100 scale, approximately 10 days; for Foxtail, Giant plant response rating (0 to 100 scale): 125 g ai/ha
In short: as §1

[10] = test system: wheat (Triticum aestivum); test: Test A postemergence, visual injury rating; conditions: 0 is no effect, 100 is complete control; for Wheat plant response rating: 31 g ai/ha, 0 to 100 scale, approximately 10 days; for Wheat plant response rating (0 to 100 scale): 125 g ai/ha
In short: as §1

[11] = test system: sedge, umbrella (small-flower umbrella sedge Cyperus difformis); test: Test C flooded paddy test, plant response rating; conditions: flood, scale 0 to 100
From the text: (§2) At the same time, plants selected from these crop and weed species and also chickweed (common chickweed, Stellaria media), buckwheat, wild (wild buckwheat, Polygonum convolvulus), wild mustard (Sinapis arvensis), field poppy (Papaver rhoeas), field violet (Viola arvensis), geranium, cutleaf (cutleaf geranium, Geranium dissectum), Canada thistle (Cirsium arvense), and speedwell (bird's-eye speedwell, Veronica persica), were planted in pots containing Sunshine Redi-Earth® planting medium comprising spaghnum peat moss, vermiculite, starter nutrients and dolomitic limestone and treated with postemergence applications of test chemicals formulated in the same manner. Plants ranged in height from 2 to 18 cm (1- to 4-leaf stage) for postemergence treatments. Treated plants and controls were maintained in a greenhouse for 13 to 15 d, after which time all species were compared to controls and visually evaluated. Plant response ratings, summarized in Table C, are based on a scale of 0 to 100 where 0 is no effect and 100 is complete control. A dash (-) response means no test result.
(§3) Plant species in the flooded paddy test consisted of rice (Oryza sativa), sedge, umbrella (small-flower umbrella sedge Cyperus difformis), ducksalad (Heteranthera limosa), and barnyardgrass (Echinochloa crus-galli) grown to the 2-leaf stage for testing. At time of treatment, test pots were flooded to 3 cm above the soil surface, treated by application of test compounds directly to the paddy water, and then maintained at that water depth for the duration of the test.

[12] = test system: ducksalad (Heteranthera limosa); test: Test C flooded paddy test, plant response rating; conditions: flood, scale 0 to 100
From the text: as §2, §3

[13] = test system: barnyardgrass (Echinochloa crus-galli); test: Test C flooded paddy test, plant response rating; conditions: flood, scale 0 to 100
From the text: as §2, §3

[14] = test system: rice (Oryza sativa); test: Test C flooded paddy test, plant response rating; conditions: flood, scale 0 to 100
From the text: as §2, §3

[15] = test system: ducksalad (Heteranthera limosa); test: Test B flooded paddy test, plant response rating; conditions: 250 g ai/ha; Flood; scale of 0 to 100 where 0 is no effect and 100 is complete control; 13 to 15 days
In short: (§4)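 Ratings were visual and made relative to untreated controls after 13 to 15 greenhouse days.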

[16] = test system: barnyardgrass (Echinochloa crus-galli); test: Test B flooded paddy test, plant response rating; conditions: 250 g ai/ha; Flood; scale of 0 to 100 where 0 is no effect and 100 is complete control; 13 to 15 days
In short: as §4

[17] = test system: sedge, umbrella (small-flower umbrella sedge, Cyperus difformis); test: Test B flooded paddy test, plant response rating; conditions: 250 g ai/ha; Flood; scale of 0 to 100 where 0 is no effect and 100 is complete control; 13 to 15 days
In short: as §4

[18] = test system: rice (Oryza sativa); test: Test B flooded paddy test, plant response rating; conditions: 250 g ai/ha; Flood; scale of 0 to 100 where 0 is no effect and 100 is complete control; 13 to 15 days
In short: as §4

[19] = test system: barnyardgrass (Echinochloa crus-galli); test: Test A preemergence, visual injury rating; conditions: for Plant response rating, Barnyardgrass: 31 g ai/ha, 0 to 100 scale, 0 no effect, 100 complete control; for Barnyardgrass plant response rating: 125 g ai/ha, 0 to 100 scale (0 no effect, 100 complete control)
In short: as §1

[20] = test system: ragweed (common ragweed, Ambrosia elatior); test: Test A preemergence, visual injury rating; conditions: for Plant response rating, Ragweed: 31 g ai/ha, 0 to 100 scale, 0 no effect, 100 complete control; for Ragweed plant response rating: 125 g ai/ha, 0 to 100 scale (0 no effect, 100 complete control)
In short: as §1

[21] = test system: kochia (Kochia scoparia); test: Test A preemergence, visual injury rating; conditions: for Plant response rating, Kochia: 31 g ai/ha, 0 to 100 scale, 0 no effect, 100 complete control; for Kochia plant response rating: 125 g ai/ha, 0 to 100 scale (0 no effect, 100 complete control)
In short: as §1

[22] = test system: Italian ryegrass (Lolium multiflorum); test: Test A preemergence, visual injury rating; conditions: for Plant response rating, Ryegrass, Italian: 31 g ai/ha, 0 to 100 scale, 0 no effect, 100 complete control; for Ryegrass, Italian plant response rating: 125 g ai/ha, 0 to 100 scale (0 no effect, 100 complete control)
In short: as §1

[23] = test system: pigweed (Amaranthus retroflexus); test: Test A preemergence, visual injury rating; conditions: for Plant response rating, Pigweed: 31 g ai/ha, 0 to 100 scale, 0 no effect, 100 complete control; for Pigweed plant response rating: 125 g ai/ha, 0 to 100 scale (0 no effect, 100 complete control)
In short: as §1

[24] = test system: giant foxtail (Setaria faberii); test: Test A preemergence, visual injury rating; conditions: for Plant response rating, Foxtail, Giant: 31 g ai/ha, 0 to 100 scale, 0 no effect, 100 complete control; for Foxtail, Giant plant response rating: 125 g ai/ha, 0 to 100 scale (0 no effect, 100 complete control)
In short: as §1

## FC(F)(F)COCc1c(Br)cccc1Oc1ncc(Cl)cn1 [Compound 62]
[1]
  Galium plant response rating: 30
  Galium plant response rating (0 to 100 scale): 80
[2]
  Blackgrass plant response rating: 0
  Blackgrass plant response rating (0 to 100 scale): 40
[3]
  Barnyardgrass plant response rating: 20
  Barnyardgrass plant response rating (0 to 100 scale): 40
[4]
  Ragweed plant response rating: 0
  Ragweed plant response rating (0 to 100 scale): 0
[5]
  Kochia plant response rating: 60
  Kochia plant response rating (0 to 100 scale): 100
[6]
  Ryegrass, Italian plant response rating: 0
  Ryegrass, Italian plant response rating (0 to 100 scale): 0
[7]
  Pigweed plant response rating: 50
  Pigweed plant response rating (0 to 100 scale): 90
[8]
  Corn plant response rating: 0
  Corn plant response rating (0 to 100 scale): 30
[9]
  Foxtail, Giant plant response rating: 0
  Foxtail, Giant plant response rating (0 to 100 scale): 40
[10]
  Wheat plant response rating: 0
  Wheat plant response rating (0 to 100 scale): 0
[11]; 16 g ai/ha
  Sedge, Umbrella plant response rating: 0
[11]; 31 g ai/ha
  Sedge, Umbrella plant response rating: 0
[11]; 62 g ai/ha
  Sedge, Umbrella plant response rating: 60
[11]; 125 g ai/ha
  Sedge, Umbrella plant response rating: 65
[12]; 16 g ai/ha
  Ducksalad plant response rating: 0
[12]; 31 g ai/ha
  Ducksalad plant response rating: 0
[12]; 62 g ai/ha
  Ducksalad plant response rating: 40
[12]; 125 g ai/ha
  Ducksalad plant response rating: 75
[13]; 16 g ai/ha
  Barnyardgrass plant response rating: 0
[13]; 31 g ai/ha
  Barnyardgrass plant response rating: 0
[13]; 62 g ai/ha
  Barnyardgrass plant response rating: 0
[13]; 125 g ai/ha
  Barnyardgrass plant response rating: 20
[14]; 16 g ai/ha
  Rice plant response rating: 0
[14]; 31 g ai/ha
  Rice plant response rating: 0
[14]; 62 g ai/ha
  Rice plant response rating: 0
[14]; 125 g ai/ha
  Rice plant response rating: 10
[15]
  Plant response rating, Ducksalad: 100
[16]
  Plant response rating, Barnyardgrass: 40
[17]
  Plant response rating, Sedge, Umbrella: 90
[18]
  Plant response rating, Rice: 0
[19]
  Plant response rating, Barnyardgrass: 30
  Barnyardgrass plant response rating: 70
[20]
  Plant response rating, Ragweed: 0
  Ragweed plant response rating: 0
[21]
  Plant response rating, Kochia: 20
  Kochia plant response rating: 70
[22]
  Plant response rating, Ryegrass, Italian: 0
  Ryegrass, Italian plant response rating: 10
[23]
  Plant response rating, Pigweed: 60
  Pigweed plant response rating: 90
[24]
  Plant response rating, Foxtail, Giant: 30
  Foxtail, Giant plant response rating: 100

## FC(F)(F)CCOCc1c(Br)cccc1Oc1ncc(Cl)cn1 [Compound 66]
[1]
  Galium plant response rating: 30
  Galium plant response rating (0 to 100 scale): 100
[2]
  Blackgrass plant response rating: 10
  Blackgrass plant response rating (0 to 100 scale): 100
[3]
  Barnyardgrass plant response rating: 40
  Barnyardgrass plant response rating (0 to 100 scale): 100
[4]
  Ragweed plant response rating: 0
  Ragweed plant response rating (0 to 100 scale): 20
[5]
  Kochia plant response rating: 20
  Kochia plant response rating (0 to 100 scale): 50
[6]
  Ryegrass, Italian plant response rating: 0
  Ryegrass, Italian plant response rating (0 to 100 scale): 50
[7]
  Pigweed plant response rating: 40
  Pigweed plant response rating (0 to 100 scale): 100
[8]
  Corn plant response rating: 20
  Corn plant response rating (0 to 100 scale): 70
[9]
  Foxtail, Giant plant response rating: 30
  Foxtail, Giant plant response rating (0 to 100 scale): 100
[10]
  Wheat plant response rating: 0
  Wheat plant response rating (0 to 100 scale): 30
[11]; 31 g ai/ha
  Sedge, Umbrella plant response rating: 40
[11]; 62 g ai/ha
  Sedge, Umbrella plant response rating: 75
[11]; 125 g ai/ha
  Sedge, Umbrella plant response rating: 85
[11]; 250 g ai/ha
  Sedge, Umbrella plant response rating: 95
[12]; 31 g ai/ha
  Ducksalad plant response rating: 40
[12]; 62 g ai/ha
  Ducksalad plant response rating: 80
[12]; 125 g ai/ha
  Ducksalad plant response rating: 85
[12]; 250 g ai/ha
  Ducksalad plant response rating: 95
[13]; 31 g ai/ha
  Barnyardgrass plant response rating: 0
[13]; 62 g ai/ha
  Barnyardgrass plant response rating: 0
[13]; 125 g ai/ha
  Barnyardgrass plant response rating: 25
[13]; 250 g ai/ha
  Barnyardgrass plant response rating: 80
[14]; 31 g ai/ha
  Rice plant response rating: 0
[14]; 62 g ai/ha
  Rice plant response rating: 0
[14]; 125 g ai/ha
  Rice plant response rating: 0
[14]; 250 g ai/ha
  Rice plant response rating: 20
[15]
  Plant response rating, Ducksalad: 100
[16]
  Plant response rating, Barnyardgrass: 30
[17]
  Plant response rating, Sedge, Umbrella: 95
[18]
  Plant response rating, Rice: 0
[19]
  Plant response rating, Barnyardgrass: 90
  Barnyardgrass plant response rating: 100
[20]
  Plant response rating, Ragweed: 0
  Ragweed plant response rating: 100
[21]
  Plant response rating, Kochia: 0
  Kochia plant response rating: 40
[22]
  Plant response rating, Ryegrass, Italian: 0
  Ryegrass, Italian plant response rating: 30
[23]
  Plant response rating, Pigweed: 20
  Pigweed plant response rating: 100
[24]
  Plant response rating, Foxtail, Giant: 70
  Foxtail, Giant plant response rating: 100
